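At the GI50, growth is halved. At the TGI there is no net growth.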
Assays:
Experiment in all cases: growth of human tumour cells (NCI), 384-well format
HL-60(TB) leukemia = system: HL-60(TB) leukemia
HCC-2998 colon = system: HCC-2998 colon
MDA-MB-231 breast = system: MDA-MB-231 breast
U251 glioblastoma = system: U251 glioblastoma
HT29 colon = system: HT29 colon
IGROV1 ovarian = system: IGROV1 ovarian
NCI-H226 lung = system: NCI-H226 lung
HS 578T breast = system: HS 578T breast
ACHN renal = system: ACHN renal
SR leukemia = system: SR leukemia
SK-OV-3 ovarian = system: SK-OV-3 ovarian
CAKI-1 renal = system: CAKI-1 renal
OVCAR-8 ovarian = system: OVCAR-8 ovarian
LOX IMVI melanoma = system: LOX IMVI melanoma
OVCAR-3 ovarian = system: OVCAR-3 ovarian
MOLT-4 leukemia = system: MOLT-4 leukemia
TK-10 renal = system: TK-10 renal
PC-3 prostate = system: PC-3 prostate
NCI-H322M lung = system: NCI-H322M lung
KM12 colon = system: KM12 colon
SNB-19 CNS = system: SNB-19 CNS
NCI-H460 NSCLC = system: NCI-H460 NSCLC
UACC-257 melanoma = system: UACC-257 melanoma
HCT-116 colon = system: HCT-116 colon
SF-268 CNS = system: SF-268 CNS
NCI-H23 lung = system: NCI-H23 lung
OVCAR-5 ovarian = system: OVCAR-5 ovarian
NCI-H522 lung = system: NCI-H522 lung
M14 melanoma = system: M14 melanoma
COLO 205 colon = system: COLO 205 colon
A498 renal = system: A498 renal
SF-539 CNS = system: SF-539 CNS
DU-145 prostate = system: DU-145 prostate
MCF7 breast = system: MCF7 breast
UACC-62 melanoma = system: UACC-62 melanoma
HOP-62 NSCLC = system: HOP-62 NSCLC
OVCAR-4 ovarian = system: OVCAR-4 ovarian
SN12C renal = system: SN12C renal
SNB-75 CNS = system: SNB-75 CNS
SK-MEL-5 melanoma = system: SK-MEL-5 melanoma
RPMI-8226 leukemia = system: RPMI-8226 leukemia
HOP-92 NSCLC = system: HOP-92 NSCLC
BT-549 breast = system: BT-549 breast
MALME-3M melanoma = system: MALME-3M melanoma
MDA-MB-435 melanoma = system: MDA-MB-435 melanoma
HCT-15 colon = system: HCT-15 colon
EKVX NSCLC = system: EKVX NSCLC
A549 NSCLC = system: A549 NSCLC
SK-MEL-28 melanoma = system: SK-MEL-28 melanoma

## Nc1nc(Nc2ccc(C3CCC(N4CCOCC4)CC3)cc2)nn1-c1ccccn1 (stereo not drawn)
HL-60(TB) leukemia
  GI50: 1.35 µM
  TGI: 2.67 µM
HCC-2998 colon
  GI50: 2.97 µM
  TGI: 6.32 µM
MDA-MB-231 breast
  GI50: 4.56 µM
  TGI: > 100 µM
U251 glioblastoma
  GI50: 2.02 µM
  TGI: 4.06 µM
HT29 colon
  GI50: 1.82 µM
  TGI: 3.59 µM
IGROV1 ovarian
  GI50: 3.06 µM
  TGI: 11.6 µM
NCI-H226 lung
  GI50: 2.59 µM
  TGI: 6.49 µM
HS 578T breast
  GI50: 1.89 µM
  TGI: 3.54 µM
ACHN renal
  GI50: 2.84 µM
  TGI: 7.6 µM
SR leukemia
  GI50: 0.255 µM
  TGI: 0.559 µM
SK-OV-3 ovarian
  GI50: 3.33 µM
  TGI: > 100 µM
CAKI-1 renal
  GI50: 3.08 µM
  TGI: > 100 µM
OVCAR-8 ovarian
  GI50: 5.06 µM
  TGI: > 100 µM
LOX IMVI melanoma
  GI50: 2.04 µM
  TGI: 3.63 µM
OVCAR-3 ovarian
  GI50: 3.13 µM
  TGI: 7.21 µM
MOLT-4 leukemia
  GI50: 1.76 µM
  TGI: 3.19 µM
TK-10 renal
  GI50: 5.32 µM
  TGI: 24.1 µM
PC-3 prostate
  GI50: 3.57 µM
  TGI: 11.9 µM
NCI-H322M lung
  GI50: 4.03 µM
  TGI: 15 µM
KM12 colon
  GI50: 0.291 µM
  TGI: > 100 µM
SNB-19 CNS
  GI50: 3.68 µM
  TGI: 16.5 µM
NCI-H460 NSCLC
  GI50: 3.17 µM
  TGI: 10.7 µM
UACC-257 melanoma
  GI50: 1.83 µM
  TGI: 3.31 µM
HCT-116 colon
  GI50: 2.42 µM
  TGI: 6 µM
SF-268 CNS
  GI50: 3.37 µM
  TGI: 13.2 µM
NCI-H23 lung
  GI50: 2.77 µM
  TGI: > 100 µM
OVCAR-5 ovarian
  GI50: 2.44 µM
  TGI: 5.19 µM
NCI-H522 lung
  GI50: 3.11 µM
  TGI: 9.08 µM
M14 melanoma
  GI50: 2.26 µM
  TGI: 3.89 µM
COLO 205 colon
  GI50: 2.89 µM
  TGI: 5.83 µM
A498 renal
  GI50: 2.57 µM
  TGI: 5.75 µM
SF-539 CNS
  GI50: 1.43 µM
  TGI: 3.02 µM
DU-145 prostate
  GI50: 3.08 µM
  TGI: 8.5 µM
MCF7 breast
  GI50: 3.43 µM
  TGI: > 100 µM
UACC-62 melanoma
  GI50: 2.03 µM
  TGI: 4.56 µM
HOP-62 NSCLC
  GI50: 2.58 µM
  TGI: 6.7 µM
OVCAR-4 ovarian
  GI50: 7.22 µM
  TGI: 27.8 µM
SN12C renal
  GI50: 1.05 µM
  TGI: 3.84 µM
SNB-75 CNS
  GI50: 2 µM
  TGI: 3.94 µM
SK-MEL-5 melanoma
  GI50: 1.7 µM
  TGI: 3.23 µM
RPMI-8226 leukemia
  GI50: 2.3 µM
  TGI: 3.78 µM
HOP-92 NSCLC
  GI50: 4.97 µM
  TGI: 20.4 µM
BT-549 breast
  GI50: 1.67 µM
  TGI: 3.25 µM
MALME-3M melanoma
  GI50: 1.86 µM
  TGI: 4.1 µM
MDA-MB-435 melanoma
  GI50: 2.25 µM
  TGI: 6.2 µM
HCT-15 colon
  GI50: 2.01 µM
  TGI: 4.14 µM
EKVX NSCLC
  GI50: 4.45 µM
  TGI: > 100 µM
A549 NSCLC
  GI50: 3.49 µM
  TGI: > 100 µM
SK-MEL-28 melanoma
  GI50: 1.81 µM
  TGI: 3.34 µM
